Like-named read-outs stand apart in the source and are kept apart here.
Tested on: Hyperlipidemic Hamster
Assay: In Vivo Assay of Hypolipidemic Agents Using the Hyperlipidemic Hamster
Conditions: Mesocricetus auratus, po, 168 h, 50 mg/kg once daily oral, 7 days, percent change versus control, negative = lowering
Protocol: In Vivo Assay of Hypolipidemic Agents Using the Hyperlipidemic Hamster
Hamsters are separated into groups of six and given a controlled cholesterol diet (Purina Chow #5001 containing 0.5% cholesterol) for seven days. Diet consumption is monitored to determine dietary cholesterol exposure in the face of test compounds. The animals are dosed with the test compound once daily beginning with the initiation of diet. Dosing is by oral gavage of 0.2mL of corn oil alone (control group) or solution (or suspension) of test compound in corn oil. All animals roodbund or in poor physical condition are euthanized. After seven days, the animals are anesthetized by IM injection of ketamine and sacrificed by decapitation. Blood is collected into vacutainer tubes containing EDTA for plasma lipid analysis and the liver excised for tissue lipid analysis. Data is reported as percent reduction of lipid versus control.
Using the test procedures described above, the following in vitro and in vivo data were obtained for the preferred compounds, which are referred to in the following table by the corresponding example numbers. For the in vitro ACAT data, negative percent inhibition denotes apparent stimulation,while positive numbers denote inhibition. For the in vivo results, data is reported as percent change versus control, therefore, negative numbers indicate a positive lipid-lowering effect.

[1] = read-out: % Reduction (in vivo) Cholest. Esters
[2] = read-out: % Reduction (in vivo) Serum Cholest.

SMILES	change in vivo at 50 mg/kg [1] [%]	change in vivo at 50 mg/kg [2] [%]
CCC(=O)N[C@@H]1C(=O)N(c2ccccc2)[C@@H]1c1ccc(OC)cc1 (relative stereo) [Example 12A]	-39	-14
COc1ccc([C@@H]2[C@H](NC(=O)COc3ccccc3)C(=O)N2c2ccccc2)cc1 (relative stereo) [Example 12B]	-26	0
COc1ccc([C@@H]2[C@H](NC(=O)OCc3ccccc3)C(=O)N2c2ccccc2)cc1 (relative stereo) [Example 12C]	0	0
COc1ccc([C@@H]2[C@H](NC(=O)N(C)c3ccccc3)C(=O)N2c2ccccc2)cc1 (relative stereo) [Example 12D]	0	0
COc1ccc([C@@H]2[C@H](NC(=O)Cc3ccccc3)C(=O)N2c2ccccc2)cc1 (relative stereo) [Example 12]	0	-12
COc1ccc([C@@H]2[C@H](NS(=O)(=O)c3ccc(C)cc3)C(=O)N2c2ccccc2)cc1 (relative stereo) [Example 13]	0	-18
COc1ccc(CN[C@@H]2C(=O)N(c3ccccc3)[C@@H]2c2ccc(OC)cc2)cc1 (relative stereo) [Example 14A]	-78	31
COc1ccc([C@@H]2[C@H](NCC(c3ccccc3)c3ccccc3)C(=O)N2c2ccccc2)cc1 (relative stereo) [Example 14B]	0	0
COc1ccc([C@@H]2[C@H](NCCCC3CCCCC3)C(=O)N2c2ccccc2)cc1 (relative stereo) [Example 14C]	0	0
COc1ccc([C@@H]2[C@H](NCCc3ccccc3)C(=O)N2c2ccccc2)cc1 (relative stereo) [Example 14]	-87	30
COc1ccc([C@@H]2[C@@H](CCCc3ccccc3)C(=O)N2c2ccc(S(C)(=O)=O)cc2)cc1 (relative stereo) [Example 17B]	-39	0
COc1ccc(N2C(=O)[C@@H](CCCc3ccccc3)[C@H]2c2ncc[nH]2)cc1 (relative stereo) [Example 18]	0	0
COc1ccc(N2C(=O)[C@H](CCCc3ccccc3)[C@H]2c2ccc(CN3CCN(C)CC3)cc2)cc1 (relative stereo) [Example 19C]	-46	-9
COc1ccc(NC[C@H]2[C@@H](CCCc3ccccc3)C(=O)N2c2ccc(OC)cc2)cc1 (relative stereo) [Example 19D]	-18	-15
COc1ccc(N2C(=O)[C@H](CCCc3ccccc3)[C@@H]2CN2CCOCC2)cc1 (relative stereo) [Example 19E]	-30	-19
COc1ccc(N2C(=O)[C@H](CCCc3ccccc3)[C@H]2c2cc[n+]([O-])cc2)cc1 (relative stereo) [Example 20]	0	12
COCc1ccc([C@H]2[C@@H](CCCc3ccccc3)C(=O)N2c2ccc(OC)cc2)cc1 (relative stereo) [Example 21A]	-25	0
COCc1ccc([C@@H]2[C@@H](CCCc3ccccc3)C(=O)N2c2ccc(OC)cc2)cc1 (relative stereo) [Example 21]	-56	-27

SMILES	change in vivo at 50 mg/kg [1] [%]	change in vivo at 50 mg/kg [2] [%]
COc1ccc(N2C(=O)[C@H](CCCc3ccccc3)[C@@H]2c2ccc(C(=O)O)cc2)cc1 (relative stereo) [Example 22A]	-22	-16
COc1ccc(N2C(=O)[C@@H](CCCc3ccccc3)[C@@H]2c2ccc(C(=O)O)cc2)cc1 (relative stereo) [Example 22]	-33	-17
COc1ccc(N2C(=O)[C@H](CCCc3ccccc3)[C@@H]2c2ccc(C(=O)N3CCOCC3)cc2)cc1 (relative stereo) [Example 23]	-40	-22
CCOC(=O)c1ccc([C@@H]2[C@@H](CCCc3ccccc3)C(=O)N2c2ccc(OC)cc2)cc1 (relative stereo) [Example 24A]	-76	-21
CCOC(=O)c1ccc([C@H]2[C@@H](CCCc3ccccc3)C(=O)N2c2ccc(OC)cc2)cc1 (relative stereo) [Example 24]	0	-17
COc1ccc(N2C(=O)[C@H](CCCc3ccccc3)[C@H]2c2ccc(N(S(C)(=O)=O)S(C)(=O)=O)cc2)cc1 (relative stereo) [Example 25A]	0	-13
COc1ccc(N2C(=O)[C@H](CCCc3ccccc3)[C@@H]2c2ccc(N(S(C)(=O)=O)S(C)(=O)=O)cc2)cc1 (relative stereo) [Example 25B]	0	0
COc1ccc(N2C(=O)[C@@H](CCCc3ccccc3)[C@@H]2c2ccc(NS(C)(=O)=O)cc2)cc1 (relative stereo) [Example 25C]	-46	-8
COc1ccc(N2C(=O)[C@H](CCCc3ccccc3)[C@@H]2c2ccc(NS(C)(=O)=O)cc2)cc1 (relative stereo) [Example 25]	-34	-8
COc1ccc(N2C(=O)[C@H](CCCc3ccccc3)[C@H]2c2ccc(NC(C)=O)cc2)cc1 (relative stereo) [Example 26]	-26	-4
CON=Cc1ccc([C@H]2[C@H](CCCc3ccccc3)C(=O)N2c2ccc(OC)cc2)cc1 (relative stereo) [Example 27A]	-42	-15
CON=Cc1ccc([C@H]2[C@@H](CCCc3ccccc3)C(=O)N2c2ccc(OC)cc2)cc1 (relative stereo) [Example 27]	-36	-12
COc1ccc(N2C(=O)[C@H](CCCc3ccccc3)[C@@H]2c2ccc(S)cc2)cc1 (relative stereo) [Example 28]	0	-19
COc1ccc(N2C(=O)[C@H](CCCc3ccccc3)[C@@H]2c2ccc(S(N)(=O)=O)cc2)cc1 (relative stereo) [Example 29]	-24	-22
COc1ccc(N2C(=O)[C@H](CCCc3ccccc3)[C@@H]2c2ccc(C3OCCO3)cc2)cc1 (relative stereo) [Example 31]	-52	-19
COc1ccc(N2C(=O)[C@H](CCCc3ccccc3)[C@H]2c2cc(I)c(O)c(I)c2)cc1 (relative stereo) [Example 32A]	0	0
COc1ccc(N2C(=O)[C@H](CCCc3ccccc3)[C@H]2c2ccc(O)c(I)c2)cc1 (relative stereo) [Example 32]	0	0
COc1ccc([C@@H]2[C@@H](CCCc3ccc(N=[N+]=[N-])cc3)C(=O)N2c2ccc(OC)cc2)cc1 (relative stereo) [Example 33]	0	0

Source: patent US5688787A, “Substituted β-lactam compounds useful as hypochlesterolemic agents and processes for the preparation thereof” (priority 1996, dated 1997)
